Measurements: the supplement of paper PMC10307832

Tests used:
Test in all cases: relative viability (nuclei count vs DMSO), 5 days (fraction); higher = more cells survive
[1] = compound: CN[C@@H]1C[C@H]2O[C@@](C)([C@@H]1OC)n1c3ccccc3c3c4c(c5c6ccccc6n2c5c31)C(=O)NC4 [Staurosporine] + C[C@@H](Oc1cc(-c2cnn(C3CCNCC3)c2)cnc1N)c1c(Cl)ccc(F)c1Cl [Crizotinib] (partner 1 µM)
Outline: (§1)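 One day after seeding in 1536-well plates, lung cancer cell lines were dosed by pin tool. Dosing was either single-drug or a fixed anchor-drug dose plus five library-drug doses (not always all listed) in √10 steps. After 5 days, nuclei were stained in one fix-and-stain step and counted on 4× images, and relative viability is the nuclei count of treated wells over that of vehicle wells, given as the median of duplicate plates.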

[2] = compound: O=c1[nH]cc(F)c(=O)[nH]1 [5-Fluorouracil] + C[C@@H](Oc1cc(-c2cnn(C3CCNCC3)c2)cnc1N)c1c(Cl)ccc(F)c1Cl [Crizotinib] (partner 1 µM)
Outline: as §1

[3] = compound: O=c1[nH]cc(F)c(=O)[nH]1 [5-Fluorouracil] + CCNC(=O)c1noc(-c2cc(C(C)C)c(O)cc2O)c1-c1ccc(CN2CCOCC2)cc1 [Luminespib] (partner 0.01 µM)
Outline: as §1

[4] = compound: O=c1[nH]cc(F)c(=O)[nH]1 [5-Fluorouracil] + Nc1nc2[nH]cc(CCc3ccc(C(=O)N[C@@H](CCC(=O)O)C(=O)O)cc3)c2c(=O)[nH]1 [Pemetrexed] (partner 0.2 µM)
Outline: as §1

Row | Cell Line | relative viability ([1]; first compound 0.005 µM) | relative viability ([1]; first compound 0.01581 µM) | relative viability ([1]; first compound 0.05 µM) | relative viability ([1]; first compound 0.1581 µM) | relative viability ([1]; first compound 0.5 µM) | relative viability ([2]; first compound 0.02 µM) | relative viability ([2]; first compound 0.2 µM) | relative viability ([2]; first compound 0.6325 µM) | relative viability ([2]; first compound 2 µM) | relative viability ([3]; first compound 0.02 µM) | relative viability ([3]; first compound 0.2 µM) | relative viability ([3]; first compound 0.6325 µM) | relative viability ([3]; first compound 2 µM) | relative viability ([4]; first compound 0.02 µM) | relative viability ([4]; first compound 0.2 µM) | relative viability ([4]; first compound 0.6325 µM) | relative viability ([4]; first compound 2 µM)
1 | 201T | 1.03 | 0.994 | 0.962 | 0.847 | 0.724 | 1.02 | 0.948 | 0.384 | 0.287 | 1.03 | 0.809 | 0.352 | 0.301 | 0.322 | 0.267 | 0.274 | 0.248
2 | A549 | 0.369 | 0.19 | 0.0867 | 0.0411 | 0.0307 | 0.783 | 0.517 | 0.295 | 0.107 | – | – | – | – | – | – | – | –
3 | A-427 | 0.841 | 0.582 | 0.236 | 0.126 | 0.122 | 0.799 | 0.965 | 0.77 | 0.378 | 1.01 | 0.883 | 0.682 | 0.548 | 0.852 | 0.984 | 0.866 | 0.55
4 | ABC-1 | 0.43 | 0.285 | 0.149 | 0.0998 | 0.0958 | 1.17 | 1.05 | 0.967 | 0.871 | 0.577 | 0.531 | 0.533 | 0.465 | – | – | – | –
5 | BEN | 1.22 | 0.754 | 0.473 | 0.379 | 0.266 | 1.02 | 0.719 | 0.615 | 0.718 | 0.18 | 0.399 | 0.543 | 0.371 | 0.817 | 0.837 | 0.758 | 0.903
6 | CAL-12T | 0.16 | 0.0981 | 0.0843 | 0.113 | 0.0906 | 0.802 | 0.592 | 0.444 | 0.312 | 0.299 | 0.34 | 0.363 | 0.3 | 1.19 | 1 | 0.942 | 0.657
7 | COR-L23 | 0.369 | 0.303 | 0.118 | 0.0765 | 0.0558 | 0.789 | 0.556 | 0.478 | 0.148 | 0.86 | 0.691 | 0.512 | 0.168 | 0.194 | 0.195 | 0.194 | 0.185
8 | COR-L 105 | 0.45 | 0.405 | – | 0.307 | 0.195 | 0.852 | 0.806 | 0.647 | 0.453 | 0.638 | 0.909 | 0.685 | 0.439 | 1.2 | 1.14 | 0.87 | 0.614
9 | Calu-6 | 0.809 | 0.337 | 0.163 | 0.0867 | 0.0627 | 0.872 | 0.859 | 0.693 | 0.427 | – | – | – | – | – | – | – | –
10 | ChaGo-K-1 | 1.14 | – | 0.819 | 0.256 | 0.203 | 1.15 | 1.06 | 0.821 | 0.711 | 0.6 | 0.513 | 0.406 | 0.358 | 0.252 | 0.262 | 0.26 | 0.261
11 | EBC-1 | 0.183 | 0.205 | 0.163 | 0.105 | 0.115 | 0.177 | 0.214 | 0.206 | 0.202 | – | – | – | – | – | – | – | –
12 | EKVX | 0.666 | 0.429 | 0.329 | 0.253 | 0.146 | 0.842 | – | 0.181 | – | 0.647 | – | 0.166 | 0.152 | 0.305 | 0.283 | – | –
13 | EMC-BAC-2 | 0.452 | 0.215 | 0.132 | 0.177 | 0.137 | 0.871 | 0.788 | 0.764 | 0.767 | 1.12 | 1.23 | 1.22 | 1.16 | 0.47 | 0.479 | 0.419 | 0.484
14 | EPLC-272H | 0.864 | 0.559 | 0.459 | 0.155 | 0.124 | 0.841 | 0.614 | 0.346 | 0.228 | 0.313 | 0.296 | 0.208 | 0.198 | 0.242 | 0.23 | 0.269 | 0.274
15 | H3255 | 0.591 | 0.495 | 0.25 | 0.174 | 0.0875 | 0.835 | 0.846 | 0.831 | 0.561 | 0.945 | 1 | 0.83 | 0.741 | 0.557 | 0.6 | 0.557 | 0.449
16 | HARA | 0.756 | 0.558 | 0.158 | 0.147 | – | 1.4 | 1.04 | 1.06 | 1.08 | 0.964 | 0.739 | 0.705 | 0.509 | 0.244 | 0.231 | 0.212 | 0.289
17 | HCC-15 | 0.795 | – | 0.527 | 0.307 | 0.267 | 0.867 | 0.782 | 0.499 | 0.269 | 0.293 | 0.294 | 0.292 | 0.225 | 0.219 | 0.217 | 0.21 | 0.218
18 | HCC-44 | 0.531 | 0.508 | 0.197 | 0.0883 | 0.0867 | 0.848 | 0.768 | 0.578 | 0.324 | 1.29 | 1.22 | 0.853 | 0.355 | 0.641 | 0.625 | 0.569 | 0.471
19 | HCC-78 | 0.358 | 0.236 | 0.244 | 0.261 | 0.239 | 0.331 | 0.311 | 0.254 | – | – | – | – | – | 0.924 | 0.866 | 0.858 | 0.915
20 | HCC-366 | 0.972 | – | 0.171 | 0.0224 | 0.0156 | 0.71 | 0.531 | 0.224 | 0.0745 | – | – | – | – | 0.142 | 0.145 | 0.0984 | 0.123
21 | HCC-827 | 0.927 | 0.803 | 0.583 | 0.575 | 0.442 | 0.859 | 0.891 | 0.604 | 0.416 | 0.399 | 0.691 | 0.465 | 0.239 | 0.238 | 0.239 | 0.273 | 0.262
